# Measurements published in patent US20240277698A1, “METHODS OF USING ALDOSTERONE SYNTHASE INHIBITORS” (CINCOR PHARMA, INC., priority 2021, published 2024).
# Assay: MAD study: safety (adverse events, vital signs, ECG, laboratory values, body weight)
# Assay type: in vivo, human
# Conditions: for tolerability: once daily for 10 days
# Description: (§1) Safety was assessed throughout the study based on AEs, physical examinations, weight measurements, electrocardiograms (ECGs), orthostatic vital sign assessments, and clinical laboratory evaluations. In order to thoroughly assess any potential effect of (R)-compound 1 on QT interval, continuous ECG recordings were also performed, starting approximately 1 hour before dosing, and continuing for approximately 24 hours after dosing on Days 1 and 10.
# as §1, with “is” for “was”, “ECGs,” for “electrocardiograms (ECGs), orthostatic”, “sign (including orthostatic)” for “sign”, “performed” for “performed,”, “dosing” for “dosing,”, “10. If cardiodynamic analyses are undertaken, 12-lead ECGs will be extracted at predefined time points paired with PK samples.” for “10.”
# [1] = 0.5 mg, normal salt diet, N = 9
# [2] = 1.5 mg, normal salt diet, N = 9
# [3] = 2.5 mg, normal salt diet, N = 6
# [4] = all dose levels including placebo, treatment period
# [5] = all subjects receiving (R)-compound 1
structure (smiles),measurement,setting,value
"CCC(=O)N[C@@H]1CCCc2c(-c3ccc4c(c3)CCC(=O)N4C)cncc21 [(R)-Compound 1, (R)—N-(4-(1-methyl-2-oxo-1,2,3,4-tetrahydroquinolin-6-yl)-5,6,7,8-tetrahydroisoquinolin-8-yl)propionamide]","Any TEAE, % of subjects","0.5 mg NS, N = 9",(11.1) %
same,"Any TEAE, number of subjects","0.5 mg NS, N = 9",1
same,"Related TEAE, % of subjects","0.5 mg NS, N = 9",(11.1) %
same,"Related TEAE, number of subjects","0.5 mg NS, N = 9",1
same,Subjects with any AE,[1],1 (11.1) n (%)
same,Subjects with any TEAE,[1],1 (11.1) n (%)
same,Subjects with any TEAE by maximum severity: Mild,[1],1 (11.1) n (%)
same,Subjects with any TEAE by maximum severity: Moderate,[1],0 (0.0) n (%)
same,Subjects with any TEAE by maximum severity: Severe,[1],0 (0.0) n (%)
same,Subjects with any TEAE leading to death,[1],0 (0.0) n (%)
same,Subjects with any TEAE leading to discontinuation,[1],0 (0.0) n (%)
same,Subjects with any study drug-related TEAE,[1],1 (11.1) n (%)
same,Subjects with any study drug-related TEAE by maximum severity: Mild,[1],1 (11.1) n (%)
same,Subjects with any study drug-related TEAE by maximum severity: Moderate,[1],0 (0.0) n (%)
same,Subjects with any study drug-related TEAE by maximum severity: Severe,[1],0 (0.0) n (%)
same,Subjects with any study drug-related TEAE leading to discontinuation,[1],0 (0.0) n (%)
same,Subjects with any study drug-related treatment-emergent SAE,[1],0 (0.0) n (%)
same,Subjects with any treatment-emergent SAE,[1],0 (0.0) n (%)
same,"Any TEAE, % of subjects","1.5 mg NS, N = 9",(11.1) %
same,"Any TEAE, number of subjects","1.5 mg NS, N = 9",1
same,"Related TEAE, % of subjects","1.5 mg NS, N = 9",(0) %
same,"Related TEAE, number of subjects","1.5 mg NS, N = 9",0
same,Subjects with any AE,[2],1 (11.1) n (%)
same,Subjects with any TEAE,[2],1 (11.1) n (%)
same,Subjects with any TEAE by maximum severity: Mild,[2],1 (11.1) n (%)
same,Subjects with any TEAE by maximum severity: Moderate,[2],0 (0.0) n (%)
same,Subjects with any TEAE by maximum severity: Severe,[2],0 (0.0) n (%)
same,Subjects with any TEAE leading to death,[2],0 (0.0) n (%)
same,Subjects with any TEAE leading to discontinuation,[2],0 (0.0) n (%)
same,Subjects with any study drug-related TEAE,[2],0 (0.0) n (%)
same,Subjects with any study drug-related TEAE by maximum severity: Mild,[2],0 (0.0) n (%)
same,Subjects with any study drug-related TEAE by maximum severity: Moderate,[2],0 (0.0) n (%)
same,Subjects with any study drug-related TEAE by maximum severity: Severe,[2],0 (0.0) n (%)
same,Subjects with any study drug-related TEAE leading to discontinuation,[2],0 (0.0) n (%)
same,Subjects with any study drug-related treatment-emergent SAE,[2],0 (0.0) n (%)
same,Subjects with any treatment-emergent SAE,[2],0 (0.0) n (%)
same,"Any TEAE, % of subjects","2.5 mg LS, N = 9",(33.3) %
same,"Any TEAE, number of subjects","2.5 mg LS, N = 9",3
same,"Related TEAE, % of subjects","2.5 mg LS, N = 9",(22.2) %
same,"Related TEAE, number of subjects","2.5 mg LS, N = 9",2
same,"Any TEAE, % of subjects","2.5 mg NS, N = 6",(50) %
same,"Any TEAE, number of subjects","2.5 mg NS, N = 6",3
same,"Related TEAE, % of subjects","2.5 mg NS, N = 6",(33.3) %
same,"Related TEAE, number of subjects","2.5 mg NS, N = 6",2
same,Subjects with any AE,"2.5 mg, low salt diet, N = 9",3 (33.3) n (%)
same,Subjects with any TEAE,"2.5 mg, low salt diet, N = 9",3 (33.3) n (%)
same,Subjects with any TEAE by maximum severity: Mild,"2.5 mg, low salt diet, N = 9",3 (33.3) n (%)
same,Subjects with any TEAE by maximum severity: Moderate,"2.5 mg, low salt diet, N = 9",0 (0.0) n (%)
same,Subjects with any TEAE by maximum severity: Severe,"2.5 mg, low salt diet, N = 9",0 (0.0) n (%)
same,Subjects with any TEAE leading to death,"2.5 mg, low salt diet, N = 9",0 (0.0) n (%)
same,Subjects with any TEAE leading to discontinuation,"2.5 mg, low salt diet, N = 9",0 (0.0) n (%)
same,Subjects with any study drug-related TEAE,"2.5 mg, low salt diet, N = 9",2 (22.2) n (%)
same,Subjects with any study drug-related TEAE by maximum severity: Mild,"2.5 mg, low salt diet, N = 9",2 (22.2) n (%)
same,Subjects with any study drug-related TEAE by maximum severity: Moderate,"2.5 mg, low salt diet, N = 9",0 (0.0) n (%)
same,Subjects with any study drug-related TEAE by maximum severity: Severe,"2.5 mg, low salt diet, N = 9",0 (0.0) n (%)
same,Subjects with any study drug-related TEAE leading to discontinuation,"2.5 mg, low salt diet, N = 9",0 (0.0) n (%)
same,Subjects with any study drug-related treatment-emergent SAE,"2.5 mg, low salt diet, N = 9",0 (0.0) n (%)
same,Subjects with any treatment-emergent SAE,"2.5 mg, low salt diet, N = 9",0 (0.0) n (%)
same,Subjects with any AE,[3],3 (50.0) n (%)
same,Subjects with any TEAE,[3],3 (50.0) n (%)
same,Subjects with any TEAE by maximum severity: Mild,[3],3 (50.0) n (%)
same,Subjects with any TEAE by maximum severity: Moderate,[3],0 (0.0) n (%)
same,Subjects with any TEAE by maximum severity: Severe,[3],0 (0.0) n (%)
same,Subjects with any TEAE leading to death,[3],0 (0.0) n (%)
same,Subjects with any TEAE leading to discontinuation,[3],0 (0.0) n (%)
same,Subjects with any study drug-related TEAE,[3],2 (33.3) n (%)
same,Subjects with any study drug-related TEAE by maximum severity: Mild,[3],2 (33.3) n (%)
same,Subjects with any study drug-related TEAE by maximum severity: Moderate,[3],0 (0.0) n (%)
same,Subjects with any study drug-related TEAE by maximum severity: Severe,[3],0 (0.0) n (%)
same,Subjects with any study drug-related TEAE leading to discontinuation,[3],0 (0.0) n (%)
same,Subjects with any study drug-related treatment-emergent SAE,[3],0 (0.0) n (%)
same,Subjects with any treatment-emergent SAE,[3],0 (0.0) n (%)
same,"Any TEAE, % of subjects","5 mg LS, N = 9",(33.3) %
same,"Any TEAE, number of subjects","5 mg LS, N = 9",3
same,"Related TEAE, % of subjects","5 mg LS, N = 9",(11.1) %
same,"Related TEAE, number of subjects","5 mg LS, N = 9",1
same,Subjects with any AE,"5.0 mg, low salt diet, N = 9",3 (33.3) n (%)
same,Subjects with any TEAE,"5.0 mg, low salt diet, N = 9",3 (33.3) n (%)
same,Subjects with any TEAE by maximum severity: Mild,"5.0 mg, low salt diet, N = 9",3 (33.3) n (%)
same,Subjects with any TEAE by maximum severity: Moderate,"5.0 mg, low salt diet, N = 9",0 (0.0) n (%)
same,Subjects with any TEAE by maximum severity: Severe,"5.0 mg, low salt diet, N = 9",0 (0.0) n (%)
same,Subjects with any TEAE leading to death,"5.0 mg, low salt diet, N = 9",0 (0.0) n (%)
same,Subjects with any TEAE leading to discontinuation,"5.0 mg, low salt diet, N = 9",0 (0.0) n (%)
same,Subjects with any study drug-related TEAE,"5.0 mg, low salt diet, N = 9",1 (11.1) n (%)
same,Subjects with any study drug-related TEAE by maximum severity: Mild,"5.0 mg, low salt diet, N = 9",1 (11.1) n (%)
same,Subjects with any study drug-related TEAE by maximum severity: Moderate,"5.0 mg, low salt diet, N = 9",0 (0.0) n (%)
same,Subjects with any study drug-related TEAE by maximum severity: Severe,"5.0 mg, low salt diet, N = 9",0 (0.0) n (%)
same,Subjects with any study drug-related TEAE leading to discontinuation,"5.0 mg, low salt diet, N = 9",0 (0.0) n (%)
same,Subjects with any study drug-related treatment-emergent SAE,"5.0 mg, low salt diet, N = 9",0 (0.0) n (%)
same,Subjects with any treatment-emergent SAE,"5.0 mg, low salt diet, N = 9",0 (0.0) n (%)
same,Subjects with any AE,"Overall (R)-compound 1, N = 42",11 (26.2) n (%)
same,Subjects with any TEAE,"Overall (R)-compound 1, N = 42",11 (26.2) n (%)
same,Subjects with any TEAE by maximum severity: Mild,"Overall (R)-compound 1, N = 42",11 (26.2) n (%)
same,Subjects with any TEAE by maximum severity: Moderate,"Overall (R)-compound 1, N = 42",0 (0.0) n (%)
same,Subjects with any TEAE by maximum severity: Severe,"Overall (R)-compound 1, N = 42",0 (0.0) n (%)
same,Subjects with any TEAE leading to death,"Overall (R)-compound 1, N = 42",0 (0.0) n (%)
same,Subjects with any TEAE leading to discontinuation,"Overall (R)-compound 1, N = 42",0 (0.0) n (%)
same,Subjects with any study drug-related TEAE,"Overall (R)-compound 1, N = 42",6 (14.3) n (%)
same,Subjects with any study drug-related TEAE by maximum severity: Mild,"Overall (R)-compound 1, N = 42",6 (14.3) n (%)
same,Subjects with any study drug-related TEAE by maximum severity: Moderate,"Overall (R)-compound 1, N = 42",0 (0.0) n (%)
same,Subjects with any study drug-related TEAE by maximum severity: Severe,"Overall (R)-compound 1, N = 42",0 (0.0) n (%)
same,Subjects with any study drug-related TEAE leading to discontinuation,"Overall (R)-compound 1, N = 42",0 (0.0) n (%)
same,Subjects with any study drug-related treatment-emergent SAE,"Overall (R)-compound 1, N = 42",0 (0.0) n (%)
same,Subjects with any treatment-emergent SAE,"Overall (R)-compound 1, N = 42",0 (0.0) n (%)
same,"Any TEAE, % of subjects","Total (R)-Compound 1, N = 42",(26.2) %
same,"Any TEAE, number of subjects","Total (R)-Compound 1, N = 42",11
same,"Related TEAE, % of subjects","Total (R)-Compound 1, N = 42",(14.3) %
same,"Related TEAE, number of subjects","Total (R)-Compound 1, N = 42",6
same,decrease in mean BW from baseline,[4],≤ 2 kg
same,decrease in mean body mass index from baseline,[4],< 0.65 kg/m^2
same,subjects experiencing a TEAE,[5],11 (26.2%)
same,subjects experiencing a TEAE considered related to study drug,[5],6 (14.3%)
same,subjects experiencing dizziness,[5],2 (4.8%)
same,subjects experiencing headache,[5],4 (9.5%)
same,subjects experiencing postural dizziness,[5],3 (7.1%)
same,BP as compared to placebo,healthy subjects,no clinically significant changes
same,"all other TEAEs (presyncope, eye irritation, abdominal pain, constipation, viral infection, rhinitis, back pain, anxiety, dry throat, dysphonia), subjects each","human, in vivo, oral, 10 days",1 subject
same,reduction in glomerular filtration rate,mild,< 15%
same,plasma sodium and potassium levels,multiple doses,"Mild, dose-dependent decreases in plasma sodium levels and increases in plasma potassium levels"
same,tolerability,healthy subjects,safe and well tolerated
same,tolerability,"healthy subjects, listed as (R)-compound 1",safe and well tolerated
same,decrease in mean BMI from baseline,overall (R)-compound 1 group,−0.442 kg/m^2
same,decrease in mean body weight from baseline,overall (R)-compound 1 group,-1.31 kg
same,QTcF,up to 5 mg QD for 10 days,no meaningful changes
